In US11167006B2 (Shanghai Tianci Life Science Development Co., Ltd., priority 2016, dated 2021):
Square brackets hold non-standard residues; d marks the D form. Peptide text beside a SMILES is read from it. NMeF = CN[C@@H](Cc1ccccc1)C(=O)O

Tests used:
[1] = test system: postoperative pain in mice; assay: Postoperative pain model (electronic Von Frey); type: in vivo, mouse; conditions: mechanical pain threshold
Source text: The postoperative pain in mice was detected mainly by an electronic Von Frey tenderness instrument. The basic pain threshold of normal mice was first determined, and then the mice were anesthetized with isoflurane. With the back facing up, the right hind paw of the mouse was fixed and disinfected with iodine solution. A 5 mm longitudinal incision was made with a No. 11 blade at 2 mm from the ankle to expose the plantaris, blood vessels and fascia, and the wound was sutured using a 4-0 surgical suture and a small suture needle, and the wound is coated with erythromycin ointment. The mechanical pain sensitivity value of the surgical foot of the mice was measured 6 h after the surgery, and then compound 9 was intrathecally or intraperitoneally given, and the mechanical pain threshold at different time points after administration were recorded.
The experimental data were expressed as mean±standard error (Means±S.E.M.), and the data for differences between groups treated with different drug concentrations were analyzed by one-way ANOVA (Bonferroni test in one-way ANOVA) for statistics and analysis, ***P<0.001 represents that there was a significant difference between the MPE value of the drug-treated group and that of the saline group.
First, the maximum analgesic effect (MPE) was calculated, MPF. […]

[2] = test system: body temperature of mice; assay: Body temperature of mice (rectal temperature); type: in vivo; conditions: mouse, intrathecal; doses 100, 300, 500 pmol
Description: Mice were fixed in the manner described in Rosow et al. (1980). The ambient temperature was controlled at 21±0.5° C. and the experiment was carried out between 10 am and 2 pm. A temperature sensor attached to the biofunctional test BL-420F system was inserted into the rectum of the mouse in a depth of 2.5 cm to record the rectal temperature. The body temperatures before the intrathecal administration and at 10, 20, 30, 40, 50 and 60 minutes after administration were recorded.
The experiment results of regulation on the mouse body temperature were expressed as the difference between the basal body temperature and the body temperature after administration. The relevant data were expressed as mean+standard error (Means±S.E.M.). Differences between groups treated with different drug concentrations were analyzed by one-way ANOVA (Bonfenoni test in one-way ANOVA) for data statistics and analysis.

[3] = test system: movement coordination of mice; assay: Movement coordination, RotaRod; type: in vivo, mouse; conditions: subcutaneous 10 mg/kg
Description: The movement coordination of the mice was detected by a ZB-200 RotaRod System. The mice were first trained for two days at a rotational speed of 16 r/min and continuously trained three times a day. The maximum movement time for each training was set to 300 s, and mice with movement time less than 180 s were excluded after the training. On day 3 of the experiment, mice were tested for movement coordination at 10, 20, 30 and 40 min after subcutaneous administration of compound 9.
The experimental data were expressed as mean±standard error (Means±S.E.M.), and the differences between drug treatment groups were analyzed by one-way ANOVA (Dunnett test in one-way ANOVA) for data statistics and analysis.

With C[C@@H](NC(=O)[C@@H](N)Cc1ccc(O)cc1)C(=O)NCC(=O)N(C)[C@@H](Cc1ccccc1)C(=O)NCC(=O)N1CCC[C@H]1C(=O)N[C@@H](CCC(N)=O)C(=O)N[C@@H](CCCNC(=N)N)C(=O)N[C@@H](Cc1ccccc1)C(N)=O [Compound 9, Tyr-D-Ala-Gly-NMe-Phe-Gly-Pro-Gln-Arg-Phe-NH2] (H-Y[dA]G[NMeF]GPQRF-NH2) the “ED50 value of analgesia for postoperative pain” value ([1]; intraperitoneal) was 26.15 (22.62-30.23) mg/kg, the “ED50 value of analgesia for postoperative pain” value ([1]; intrathecal) was 8.63 (6.70-11.11) pmol and the “dose producing a significant effect of lowering body temperature” value [2] was 500 pmol. The “effect on movement coordination” value [3] was “did not significantly affect movement coordination”.
